Columns and labels:
[1] = tested on: Mamu-E restricted CD8^+ T cells; assay type: cell-based, rhesus macaques (Macaca mulatta)
[2] = target: HLA-E*01:03 (Homo sapiens, UniProt P13747); assay: Single-chain peptide-β2m-HC construct, HLA-E surface expression in transfected 293T cells; assay type: cell-based; settings: peptide encoded in single-chain peptide-β2M-HC construct, 24 h after transfection, flow cytometry, scaled to index position 2 residue, n = 4

Row | Sequence | Magnitude of CD8+ T cell responses to Mtb44 and position 2 variants [1] | Relative HLA-E surface expression (MFI, 3D12 antibody) [2]
1 | RFPAKAPLL [Mtb44*P2-Phe] | responses of similar magnitude | highest relative levels of HLA-E surface expression
2 | RLPAKAPLL [Mtb44] | responses of similar magnitude | –
3 | RQPAKAPLL [Mtb44*P2-Gln] | responses of similar magnitude | –
